Experimental data: ChEMBL document CHEMBL1201862, “PubChem BioAssay data set” (2004)
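The compound was tested at five concentrations on cells cultured in 96-well plates, with a 48-hour exposure period. GI50: concentration for 50% inhibition of growth.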 The source made the active and inactive calls. Cut-off read from the data, not from the text of the source: active = GI50 up to about 1.1 µM and inactive = higher.

How the values were obtained:
Test in all cases: NCI tumour cell line growth inhibition, 48 h
Hs-578T = test system: Hs-578T
SR = test system: SR
HCT-116 = test system: HCT-116
SK-MEL-2 = test system: SK-MEL-2
UACC-62 = test system: UACC-62
DMS-114 = test system: DMS-114
U-251 = test system: U-251
MDA-MB-435 = test system: MDA-MB-435
HCC 2998 = test system: HCC 2998
SF-268 = test system: SF-268
SK-MEL-5 = test system: SK-MEL-5
SN12C = test system: SN12C
SF-295 = test system: SF-295
SNB-75 = test system: SNB-75
MDA-N = test system: MDA-N
KM-20L2 = test system: KM-20L2
RPMI-8226 = test system: RPMI-8226
NCI-H23 = test system: NCI-H23
DMS-273 = test system: DMS-273
CCRF-CEM = test system: CCRF-CEM

Row | Compound | GI50 (Hs-578T) | GI50 (SR) | GI50 (HCT-116) | GI50 (SK-MEL-2) | GI50 (UACC-62) | GI50 (DMS-114) | GI50 (U-251) | GI50 (MDA-MB-435) | GI50 (HCC 2998) | GI50 (SF-268) | GI50 (SK-MEL-5) | GI50 (SN12C) | GI50 (SF-295) | GI50 (SNB-75) | GI50 (MDA-N) | GI50 (KM-20L2) | GI50 (RPMI-8226) | GI50 (NCI-H23) | GI50 (DMS-273) | GI50 (CCRF-CEM)
1 | Nc1ccccc1C(=O)NC(=O)Nc1ccc(Oc2ncc(Br)cn2)c(Cl)c1 | < 0.01 µM (active) | < 0.01 µM (active) | < 0.01 µM (active) | < 0.0929 µM (active) | < 0.01 µM (active) | < 0.01 µM (active) | < 0.01 µM (active) | < 0.01 µM (active) | 0.0116 µM (active) | < 0.01 µM (active) | < 0.01 µM (active) | 0.0133 µM (active) | < 0.01 µM (active) | < 0.01 µM (active) | < 0.01 µM (active) | < 0.01 µM (active) | 0.0182 µM (active) | 0.0108 µM (active) | – | –
2 | C=C(C)CC(C(=O)O)c1ccc(C)cc1 (stereo not drawn) | – | > 100 µM (inactive) | > 100 µM (inactive) | > 100 µM (inactive) | > 100 µM (inactive) | > 100 µM (inactive) | > 100 µM (inactive) | – | – | > 100 µM (inactive) | > 100 µM (inactive) | > 100 µM (inactive) | > 100 µM (inactive) | > 100 µM (inactive) | – | > 100 µM (inactive) | > 100 µM (inactive) | > 100 µM (inactive) | > 100 µM (inactive) | –
3 | Cc1c2ncccc2c(C)c2c1[nH]c1ccccc12 | – | – | 5.27 µM (inactive) | 22.9 µM (inactive) | 15.3 µM (inactive) | – | 12.2 µM (inactive) | – | 12.3 µM (inactive) | 13.8 µM (inactive) | – | 11.5 µM (inactive) | 8.57 µM (inactive) | 10.6 µM (inactive) | – | 7.11 µM (inactive) | 6.59 µM (inactive) | 11.1 µM (inactive) | 4.84 µM (inactive) | 10.2 µM (inactive)
4 | O=C(c1ccccc1)c1nnc(C(=O)c2ccccc2)nn1 | – | 4.45 µM (inactive) | > 344 µM (inactive) | > 344 µM (inactive) | > 344 µM (inactive) | – | 165 µM (inactive) | – | 36.3 µM (inactive) | > 344 µM (inactive) | > 344 µM (inactive) | > 344 µM (inactive) | 139 µM (inactive) | 83.4 µM (inactive) | – | > 344 µM (inactive) | > 344 µM (inactive) | 308 µM (inactive) | > 344 µM (inactive) | 265 µM (inactive)
5 | CCCCCCCCCCCCCCCCc1c(C(=O)OC)[nH]c(=S)[nH]c1=O | – | 0.0151 µM (active) | > 50 µM (inactive) | > 50 µM (inactive) | > 50 µM (inactive) | – | > 50 µM (inactive) | – | > 50 µM (inactive) | > 50 µM (inactive) | > 50 µM (inactive) | > 50 µM (inactive) | > 50 µM (inactive) | > 50 µM (inactive) | – | > 50 µM (inactive) | > 50 µM (inactive) | > 50 µM (inactive) | > 50 µM (inactive) | > 50 µM (inactive)
6 | COc1ccc(/C(=C/n2ccnc2)C(O)c2ccc(OC)c(OC)c2)cc1OC (stereo not drawn) | – | 12.3 µM (inactive) | – | > 100 µM (inactive) | – | – | > 100 µM (inactive) | – | – | > 100 µM (inactive) | – | > 100 µM (inactive) | > 100 µM (inactive) | 51.9 µM (inactive) | – | > 100 µM (inactive) | 70.6 µM (inactive) | > 100 µM (inactive) | > 100 µM (inactive) | 26.7 µM (inactive)
7 | CC1=NC(C(C)C)C(=O)O1 (stereo not drawn) | – | – | 18.5 µM (inactive) | – | > 100 µM (inactive) | 24.6 µM (inactive) | > 100 µM (inactive) | – | > 100 µM (inactive) | 45.1 µM (inactive) | > 100 µM (inactive) | > 100 µM (inactive) | > 100 µM (inactive) | > 100 µM (inactive) | – | > 100 µM (inactive) | 22.1 µM (inactive) | > 100 µM (inactive) | 56 µM (inactive) | > 100 µM (inactive)
8 | O=C(O)C(CS)Nc1c2ccccc2[n+]([O-])c2ccccc12 (stereo not drawn) | – | – | 92 µM (inactive) | > 100 µM (inactive) | > 100 µM (inactive) | > 100 µM (inactive) | > 100 µM (inactive) | – | > 100 µM (inactive) | > 100 µM (inactive) | 76 µM (inactive) | > 100 µM (inactive) | > 100 µM (inactive) | > 100 µM (inactive) | – | > 100 µM (inactive) | 29.1 µM (inactive) | 87.7 µM (inactive) | > 100 µM (inactive) | > 100 µM (inactive)
9 | CN1C(c2ccccc2)CC(=O)C(N)C1c1ccccc1 (stereo not drawn) | – | 25 µM (inactive) | 18 µM (inactive) | 19.4 µM (inactive) | 27.2 µM (inactive) | – | 21.4 µM (inactive) | – | 20.8 µM (inactive) | 38.2 µM (inactive) | 18.8 µM (inactive) | 34.7 µM (inactive) | 48.9 µM (inactive) | 63.5 µM (inactive) | – | 34.8 µM (inactive) | 17.3 µM (inactive) | 42.5 µM (inactive) | 23.4 µM (inactive) | 25.2 µM (inactive)
10 | CSC1=NC=CCN1C | – | – | > 100 µM (inactive) | > 100 µM (inactive) | > 100 µM (inactive) | > 100 µM (inactive) | > 100 µM (inactive) | – | > 100 µM (inactive) | > 100 µM (inactive) | > 100 µM (inactive) | > 100 µM (inactive) | > 100 µM (inactive) | > 100 µM (inactive) | – | > 100 µM (inactive) | > 100 µM (inactive) | > 100 µM (inactive) | > 100 µM (inactive) | > 100 µM (inactive)
11 | CCCCCCCCC(=O)CCCCCCCCC(=O)O | – | 16.2 µM (inactive) | 21.6 µM (inactive) | 36.1 µM (inactive) | 20.1 µM (inactive) | 23 µM (inactive) | 25.1 µM (inactive) | – | – | 23.9 µM (inactive) | 15.5 µM (inactive) | 25.6 µM (inactive) | 26.4 µM (inactive) | 37.2 µM (inactive) | – | 25.9 µM (inactive) | 16.7 µM (inactive) | 30.3 µM (inactive) | 25.3 µM (inactive) | 28.6 µM (inactive)
12 | COC1CCCc2c(OC(C)=O)ccc(OC(C)=O)c21 (stereo not drawn) | – | > 100 µM (inactive) | > 100 µM (inactive) | > 100 µM (inactive) | > 100 µM (inactive) | > 100 µM (inactive) | > 100 µM (inactive) | – | > 100 µM (inactive) | > 100 µM (inactive) | > 100 µM (inactive) | > 100 µM (inactive) | – | > 100 µM (inactive) | – | > 100 µM (inactive) | – | > 100 µM (inactive) | – | –
13 | O=S(O)CCCCSSCc1ccccc1CSSCCCCS(=O)O | – | – | – | 35.2 µM (inactive) | 10.5 µM (inactive) | 14.9 µM (inactive) | 46.7 µM (inactive) | – | 19 µM (inactive) | 12.5 µM (inactive) | 8.79 µM (inactive) | 26 µM (inactive) | 17 µM (inactive) | 9.16 µM (inactive) | – | 61 µM (inactive) | 10.8 µM (inactive) | 18 µM (inactive) | 21.1 µM (inactive) | 3.88 µM (inactive)
14 | COc1ccc(C2Oc3cc(OC)c(O)c(C)c3[C@H]2C)cc1 (stereo partly drawn) | – | – | 35.6 µM (inactive) | > 100 µM (inactive) | > 100 µM (inactive) | 58.7 µM (inactive) | > 100 µM (inactive) | – | > 100 µM (inactive) | 41.4 µM (inactive) | 62.7 µM (inactive) | – | > 100 µM (inactive) | 7.87 µM (inactive) | – | > 100 µM (inactive) | > 10 µM (inactive) | 57.3 µM (inactive) | 73.3 µM (inactive) | 36.2 µM (inactive)
